Key:
[1] = tested on: Nrf2; assay: Nrf2 reporter assay (ARE-luciferase, AREc32 cells); format: cell-based; settings: 24 h, dose range 0 to 200 μM (FIG. 3)
Protocol: Activation of Nrf2 was measured using an Nrf2 reporter assay. This assay is based on the AREc32 cell line, from CRX biosciences (Dundee, Scotland), a stably transfected MCF7 (breast adenocarcinoma) cell line that contains a luciferase gene construct under the control of the ARE. […] Luciferase activity is determined using a luciferase kit form Promega (Madison, Wis.). The luciferase activity is proportional to the activation of Nrf2.
For each run the luciferase activities, measured in Relative Light Units (RLU), of all the wells were normalized with the mean of the luciferase activity of the cells only of all the plates. Among all the samples tested the normalization procedure was found not to affect the data and this observation permits the comparison of samples measured in different runs.
For each sample the Nrf2 activation was calculated as follows: […]
The luciferase content per sample allows a semi quantification of the Nrf2 activation by reflecting the amount of the Nrf2 activating molecule. […]

[2] = tested on: AREc32 cells; assay: AREc32 cell viability (ATP quantification, Cell Titer-Glo); format: cell-based; settings: 24 h
Protocol: To determine the Nrf2 activation the samples were tested on AREc32 cells (seeded in 96 well plates) using 10 independent dilutions (1/2, 1/4, 1/6, 1/10, 1/15, 1/20, 1/25, 1/30, 1/40 and 1/50) and incubated for 24 hours at 37° C. in a 5% CO2/air incubator. The luciferase activity and the cell viability (ATP measurements) were determined using the Luciferase and Cell Titer-Glo kits from Promega.
The cell viability was also measured using a cell Titer-Glo kit (ATP quantification).

[3] = tested on: Heme oxygenase 1 (HO-1); assay: mRNA expression in hepatocytes (qPCR): heme oxygenase 1; format: cell-based; settings: rat hepatocytes, 24 h, dose range (FIG. 5)
Protocol: (§1) Hepatocytes were isolated from Sprague-Dawley male rats (190-240 g) by liver perfusion. […] After overnight incubation, the medium was removed and 2.5 ml of fresh medium containing the test substances was added. The dishes were incubated for 24 h at 37° C. in a 5% CO2/air incubator. Cell lysates for the RNA extraction were obtained by adding 400 μl of RNA lysis buffer (RA-1 with 1% v/v β-mercaptoethanol) to the cells and vigorously mixed (vortex). Total RNA was extracted from the cell lysates according manufacturer's instructions (Nucleospin RNA2 kit, Macherey-Nagel, Düren, Germany) with minor changes: 20 min of DNASE treatment and 60 μl of elution volume. Total RNAs were quantified using Ribogren kit (Molecular probes) and the quality was evaluated by capillary electrophoresis using Bionalyzer (Agilent). Reverse transcription reactions were performed with the Multiscribe reverse transcriptase enzyme in the presence of random hexamers primers (Reverse Transcription Reagent from Applied Biosystems). Gene expression quantification was performed using pre-designed TaqMan probes (Applied Biosystems). Each qPCR reaction was done in technical duplicates on 50 ng of cDNA. The arithmetic mean of two housekeeping genes (GAPDH and β-Actin) was used for normalization. The mRNA gene expression calculations are based on the ΔΔCt method: […] [table]

[4] = tested on: NAD(P)H dehydrogenase quinone (Nqo1); assay: mRNA expression in hepatocytes (qPCR): NAD(P)H dehydrogenase quinone; format: cell-based; settings: rat hepatocytes, 24 h, dose range (FIG. 5)
Protocol: as §1

[5] = tested on: Glutamate cysteine ligase, catalytic subunit (Gclc); assay: mRNA expression in hepatocytes (qPCR): glutamate cysteine ligase catalytic subunit; format: cell-based; settings: rat hepatocytes, 24 h, dose range (FIG. 5)
Protocol: as §1

[6] = tested on: Glutathione-S-transferase, pi 1 (Gstp1); assay: mRNA expression in hepatocytes (qPCR): glutathione-S-transferase; format: cell-based; settings: rat hepatocytes, 24 h, dose range (FIG. 5)
Protocol: as §1

[7] = tested on: UDP-glucuronosyltransferase (UGT); assay: mRNA expression in hepatocytes (qPCR): UDP-glucuronosyltransferase; format: cell-based; settings: rat hepatocytes, 24 h, dose range (FIG. 5)
Protocol: as §1

[8] = tested on: Glutathione peroxidase 1 (Gpx1); assay: mRNA expression in hepatocytes (qPCR): glutathione peroxidase 1; format: cell-based; settings: rat hepatocytes, 24 h, dose range (FIG. 5)
Protocol: as §1

[9] = tested on: Glutathione peroxidase 2 (Gpx2); assay: mRNA expression in hepatocytes (qPCR): glutathione peroxidase 2; format: cell-based; settings: rat hepatocytes, 24 h, dose range (FIG. 5)
Protocol: as §1

[10] = tested on: Glutathione reductase (Gsr); assay: mRNA expression in hepatocytes (qPCR): glutathione reductase; format: cell-based, rat; settings: liver cells (hepatocytes)
Protocol: as §1

[11] = tested on: hepatocytes; assay: Hepatocyte viability (LDH measurement); format: cell-based; settings: rat hepatocytes, 24 h
Protocol: Hepatocytes were isolated from Sprague-Dawley male rats (190-240 g) by liver perfusion. Cells were seeded at 2500000 cells/dish (6 cm) in 2.5 ml of Williams'E medium supplemented with 2 mM L-glutamine, 10 mM Hepes (Sigma), 1% ITS+, 1% Penicillin/Streptomycin (Sigma) and 25 nM Dexamethasone (Sigma). After overnight incubation, the medium was removed and 2.5 ml of fresh medium containing the test substances was added. The dishes were incubated for 24 h at 37° C. in a 5% CO2/air incubator.
At the end of the incubation, the cell supernatants were harvested for LDH (lactate dehydrogenase) measurement, which is an indicator of cell viability. Cells were washed once with 2.5 ml of cold PBS 1× then detached from the Petri dishes by scraping. Cells were then transferred to 1.5 ml Eppendorf tubes which were centrifuged for 1 min at 4° C. at 7000 g.

[12] = tested on: NF-κB; assay: NF-κB activity in HT-29 clone 34 cells (SEAP reporter and IL-8); format: cell-based, human
Protocol: Two in-vitro systems were used: human colonic cells (HT-29 clone 34) and human monocytes/macrophages (THP-1 blue cells). The human colonic adenocarcinoma HT-29 clone 34 cell line (passage 42-50) are adherent cells stably transfected with a NF-κB/SEAP reporter plasmid. They were cultured in DMEM high glucose (4.5 g/L) (Invitrogen) containing 1% of stable L-glutamine and supplemented with 10% of heat inactivated (one hour at 56° C.) Foetal Calf Serum (FCS) (Bioconcept, Allschwil, Switzerland), 1% of Penicillin/Streptomycin (Sigma) and 500 μg/ml of Geneticin (PAA, Pasching, Austria) at 37° C. in a 5% CO2/air incubator. Culture medium was renewed every two days until the cell monolayer reached ˜90% confluence. Cells were sub-cultured using 1× Trypsin/EDTA (Sigma). 10000 cells/well were seeded in 200 μl of culture medium in flat bottom white border 96 well plates (Greiner Bio One, Kremsmuenster, Austria). […] Cell culture supernatants were then collected for measurement of NF-κB activity (determination of secreted alkaline phosphatase and IL-8 production) using Phosphalight (Applied Biosystems) and IL-8 singleplex (Meso Scale, Gaithersburg, Md.) kits, respectively.

[13] = tested on: HT-29 clone 34 cells; assay: HT-29 clone 34 cell viability (ATP, Cell Titer-Glo); format: cell-based, human
Protocol: 10000 cells/well were seeded in 200 μl of culture medium in flat bottom white border 96 well plates (Greiner Bio One, Kremsmuenster, Austria). […] 20 μl of experimental medium containing (or not) LPS 055:B5 or rhTNF-α (100 and 10 ng/ml final, respectively) was added and the plates were incubated for 24 hours at 37° C. in a 5% CO2/air incubator.
Cell viability was determined by measuring ATP using Cell Titer-Glo kit (Promega). Briefly, remaining adherent HT-29 clone 34 cells were incubated for 10 min at room temperature under horizontal shaking (250 rpm) with 120 μl of Cell Titer-Glo reagent (pre-diluted twice in 1×PBS) and the luminescence was measured using Polarstar microplate reader (BMG, Offenburg, Germany) for 1000 ms with a gain value set to 3500.

[14] = tested on: THP-1 blue cells; assay: THP-1 blue cell viability (Cell Titer-Glo); format: cell-based, human
Protocol: 200000 cells/well were seeded in 100 μl of culture medium in 96 well flat bottom transparent plates. […] 20 μl of culture media containing (or not) LPS 055:B5 (Sigma) (100 ng/ml final) was added and the plates were incubated for 16 hours at 37° C. in a 5% CO2/air incubator.
Cell culture supernatants were carefully transferred to 96 well-plates for NF-κB activity measurement which is proportional to the level of secreted alkaline phosphatase. Briefly, 100 μl of supernatants were mixed with 150 μl of QuantiBlue (Invivogen) in a 96 well-plates incubated for 3 h at 37° C. before OD measurements at 620 nm with Sunrise microplate reader (Tecan, Mannedorf, Switzerland). Cell viability was determined using Cell Titer-Glo kit as described above.

mRNA expression of heme oxygenase 1 [3]: increased | mRNA expression of NAD(P)H dehydrogenase quinone [4]: increased | mRNA expression of glutamate cysteine ligase catalytic subunit [5]: increased | mRNA expression of glutathione-S-transferase [6]: increased | mRNA expression of UDP-glucuronosyltransferase (UGT) [7]: increased | mRNA expression of glutathione peroxidase 1 [8]: not affected | mRNA expression of glutathione peroxidase 2 [9]: not affected | gene expression of glutathione reductase [10]: activated gene expression
Compound: CC(=O)/C=C/C(=O)O [4-oxo-2-pentenoic acid]
Nrf2 activation [1]: strongly activate Nrf2 in a dose dependent manner | doses at which viability of AREc32 cells was not affected [2]: lower than 70 μM | cell viability (LDH measurements) [11]: not affected | dose giving the best inhibition of NF-κB activity (SEAP and IL-8) ([12]; HT-29 clone 34 cells stimulated with LPS): 50 µM | inhibition of NF-κB activity (SEAP and IL-8 secretion) ([12]; HT-29 clone 34 cells stimulated with LPS (100 ng/ml), 4 h pre-incubation, 24 h): inhibits NF-κB activity in a dose dependent manner | NF-κB activity (SEAP or IL-8) in the absence of LPS ([12]; HT-29 clone 34 cells, no LPS, doses tested 3 to 400 μM): no NF-κB activity was observed | doses showing a decrease in cell viability [13]: > 50 µM | doses toxic to cells [14]: higher than 75 μM

Source: patent US9486425B2 (NESTEC S.A., priority 2012, dated 2016)
